According to US9469650B2, “Melampomagnolide B derivatives” (BOARD OF TRUSTEES OF THE UNIVERSITY OF ARKANSAS, priority 2013, dated 2016):
Read-outs that look alike come from different tables or passages of the source.

Assays:
HCT-116 = test: panel of 60 human tumor cell lines, growth inhibition (Colon Cancer); conditions: HCT-116
OVCAR-8 = test: panel of 60 human tumor cell lines, growth inhibition (Ovarian Cancer); conditions: OVCAR-8
SK-MEL-2 = test: panel of 60 human tumor cell lines, growth inhibition (Melanoma); conditions: SK-MEL-2
KM12 = test: panel of 60 human tumor cell lines, growth inhibition (Colon Cancer); conditions: KM12
SN12C = test: panel of 60 human tumor cell lines, growth inhibition (Renal Cancer)
SR = test: panel of 60 human tumor cell lines, growth inhibition (Leukemia)
SK-MEL-28 = test: panel of 60 human tumor cell lines, growth inhibition (Melanoma); conditions: SK-MEL-28
HT29 = test: panel of 60 human tumor cell lines, growth inhibition (Colon Cancer); conditions: HT29
UACC-257 = test: panel of 60 human tumor cell lines, growth inhibition (Melanoma); conditions: UACC-257
A549/ATCC = test: panel of 60 human tumor cell lines, growth inhibition (Non-Small Cell Lung Cancer); conditions: A549/ATCC
OVCAR-3 = test: panel of 60 human tumor cell lines, growth inhibition (Ovarian Cancer); conditions: OVCAR-3
MDA-MB-468 = test: panel of 60 human tumor cell lines, growth inhibition (Breast Cancer); conditions: MDA-MB-468
TK-10 = test: panel of 60 human tumor cell lines, growth inhibition (Renal Cancer); conditions: TK-10
SNB-75 = test: panel of 60 human tumor cell lines, growth inhibition (CNS Cancer); conditions: SNB-75
MDA-MB-231/ATCC = test: panel of 60 human tumor cell lines, growth inhibition (Breast Cancer); conditions: MDA-MB-231/ATCC
CCRF-CEM = test: panel of 60 human tumor cell lines, growth inhibition (Leukemia)
UACC-62 = test: panel of 60 human tumor cell lines, growth inhibition (Melanoma); conditions: UACC-62

C=C1C(=O)O[C@H]2[C@H]1CC/C(COC(=O)NC)=C\CC[C@@]1(C)O[C@@H]21 [JVM 2-57]
Percent Growth (HCT-116; Log10 Concentration −4.0): −98% | Percent Growth (HCT-116; Log10 Concentration −5.0): 3% | Percent Growth (HCT-116; Log10 Concentration −6.0): 88% | Percent Growth (HCT-116; Log10 Concentration −7.0): 93% | Percent Growth (HCT-116; Log10 Concentration −8.0): 102% | GI50 (HCT-116; NCI five dose): 2800 nM | TGI (HCT-116; NCI five dose): 1.07E−5 | Percent Growth (OVCAR-8; Log10 Concentration −4.0): −76% | Percent Growth (OVCAR-8; Log10 Concentration −5.0): 30% | Percent Growth (OVCAR-8; Log10 Concentration −6.0): 92% | Percent Growth (OVCAR-8; Log10 Concentration −7.0): 160% | Percent Growth (OVCAR-8; Log10 Concentration −8.0): 100% | GI50 (OVCAR-8; NCI five dose): 4.82 µM | TGI (OVCAR-8; NCI five dose): 1.93E−5 | Percent Growth (SK-MEL-2; Log10 Concentration −4.0): −70% | Percent Growth (SK-MEL-2; Log10 Concentration −5.0): 53% | Percent Growth (SK-MEL-2; Log10 Concentration −6.0): 99% | Percent Growth (SK-MEL-2; Log10 Concentration −7.0): 99% | Percent Growth (SK-MEL-2; Log10 Concentration −8.0): 96% | GI50 (SK-MEL-2; NCI five dose): 10.5 µM | TGI (SK-MEL-2; NCI five dose): 2.69E−5 | Percent Growth (KM12; Log10 Concentration −4.0): −92% | Percent Growth (KM12; Log10 Concentration −5.0): 73% | Percent Growth (KM12; Log10 Concentration −6.0): 99% | Percent Growth (KM12; Log10 Concentration −7.0): 97% | Percent Growth (KM12; Log10 Concentration −8.0): 98% | GI50 (KM12; NCI five dose): 13.8 µM | TGI (KM12; NCI five dose): 2.78E−5 | Percent Growth (SN12C; Log10 Concentration −4.0): −59% | Percent Growth (SN12C; Log10 Concentration −5.0): 28% | Percent Growth (SN12C; Log10 Concentration −6.0): 93% | Percent Growth (SN12C; Log10 Concentration −7.0): 97% | Percent Growth (SN12C; Log10 Concentration −8.0): 96% | GI50 (SN12C; NCI five dose): 4.57 µM | TGI (SN12C; NCI five dose): 2.09E−5 | Percent Growth (SR; Log10 Concentration −4.0): −45% | Percent Growth (SR; Log10 Concentration −5.0): 4% | Percent Growth (SR; Log10 Concentration −6.0): 77% | Percent Growth (SR; Log10 Concentration −7.0): 96% | Percent Growth (SR; Log10 Concentration −8.0): 101% | GI50 (SR; NCI five dose): 2330 nM | TGI (SR; NCI five dose): 1.21E−5 | Percent Growth (HL-60(TB); Log10 Concentration −4.0): −55% | Percent Growth (HL-60(TB); Log10 Concentration −5.0): −11% | Percent Growth (HL-60(TB); Log10 Concentration −6.0): 84% | Percent Growth (HL-60(TB); Log10 Concentration −7.0): 91% | Percent Growth (HL-60(TB); Log10 Concentration −8.0): 96% | GI50 (HL-60(TB); NCI five dose): 2280 nM | TGI (HL-60(TB); NCI five dose): 7.73E−6 | CC50 (HL-60(TB); read-out: LC50, NCI five dose): 77.2 µM | Percent Growth (SK-MEL-28; Log10 Concentration −4.0): −79% | Percent Growth (SK-MEL-28; Log10 Concentration −5.0): 24% | Percent Growth (SK-MEL-28; Log10 Concentration −6.0): 91% | Percent Growth (SK-MEL-28; Log10 Concentration −7.0): 91% | Percent Growth (SK-MEL-28; Log10 Concentration −8.0): 98% | GI50 (SK-MEL-28; NCI five dose): 4.11 µM | TGI (SK-MEL-28; NCI five dose): 1.72E−5 | Percent Growth (HT29; Log10 Concentration −4.0): −73% | Percent Growth (HT29; Log10 Concentration −5.0): 21% | Percent Growth (HT29; Log10 Concentration −6.0): 104% | Percent Growth (HT29; Log10 Concentration −7.0): 96% | Percent Growth (HT29; Log10 Concentration −8.0): 101% | GI50 (HT29; NCI five dose): 4.5 µM | TGI (HT29; NCI five dose): 1.68E−5 | Percent Growth (UACC-257; Log10 Concentration −4.0): −91% | Percent Growth (UACC-257; Log10 Concentration −5.0): 24% | Percent Growth (UACC-257; Log10 Concentration −6.0): 73% | Percent Growth (UACC-257; Log10 Concentration −7.0): 94% | Percent Growth (UACC-257; Log10 Concentration −8.0): 94% | GI50 (UACC-257; NCI five dose): 2960 nM | TGI (UACC-257; NCI five dose): 1.62E−5 | Percent Growth (A549/ATCC; Log10 Concentration −4.0): −88% | Percent Growth (A549/ATCC; Log10 Concentration −5.0): 71% | Percent Growth (A549/ATCC; Log10 Concentration −6.0): 95% | Percent Growth (A549/ATCC; Log10 Concentration −7.0): 99% | Percent Growth (A549/ATCC; Log10 Concentration −8.0): 100% | GI50 (A549/ATCC; NCI five dose): 13.5 µM | TGI (A549/ATCC; NCI five dose): 2.80E−5 | Percent Growth (OVCAR-3; Log10 Concentration −4.0): −100% | Percent Growth (OVCAR-3; Log10 Concentration −5.0): 7% | Percent Growth (OVCAR-3; Log10 Concentration −6.0): 86% | Percent Growth (OVCAR-3; Log10 Concentration −7.0): 100% | Percent Growth (OVCAR-3; Log10 Concentration −8.0): 99% | GI50 (OVCAR-3; NCI five dose): 2870 nM | TGI (OVCAR-3; NCI five dose): 1.17E−5 | Percent Growth (MDA-MB-468; Log10 Concentration −4.0): −65% | Percent Growth (MDA-MB-468; Log10 Concentration −5.0): −18% | Percent Growth (MDA-MB-468; Log10 Concentration −6.0): 58% | Percent Growth (MDA-MB-468; Log10 Concentration −7.0): 99% | Percent Growth (MDA-MB-468; Log10 Concentration −8.0): 100% | GI50 (MDA-MB-468; NCI five dose): 1260 nM | TGI (MDA-MB-468; NCI five dose): 5.83E−6 | Percent Growth (TK-10; Log10 Concentration −4.0): −95% | Percent Growth (TK-10; Log10 Concentration −5.0): −5% | Percent Growth (TK-10; Log10 Concentration −6.0): 96% | Percent Growth (TK-10; Log10 Concentration −7.0): 98% | Percent Growth (TK-10; Log10 Concentration −8.0): 94% | GI50 (TK-10; NCI five dose): 2860 nM | TGI (TK-10; NCI five dose): 8.97E−6 | Percent Growth (SNB-75; Log10 Concentration −4.0): −41% | Percent Growth (SNB-75; Log10 Concentration −5.0): 55% | Percent Growth (SNB-75; Log10 Concentration −6.0): 78% | Percent Growth (SNB-75; Log10 Concentration −7.0): 76% | Percent Growth (SNB-75; Log10 Concentration −8.0): 83% | GI50 (SNB-75; NCI five dose): 11.2 µM | TGI (SNB-75; NCI five dose): 3.72E−5 | Percent Growth (MDA-MB-231/ATCC; Log10 Concentration −4.0): −77% | Percent Growth (MDA-MB-231/ATCC; Log10 Concentration −5.0): 31% | Percent Growth (MDA-MB-231/ATCC; Log10 Concentration −6.0): 86% | Percent Growth (MDA-MB-231/ATCC; Log10 Concentration −7.0): 89% | Percent Growth (MDA-MB-231/ATCC; Log10 Concentration −8.0): 106% | GI50 (MDA-MB-231/ATCC; NCI five dose): 4.48 µM | TGI (MDA-MB-231/ATCC; NCI five dose): 1.93E−5 | Percent Growth (CCRF-CEM; Log10 Concentration −4.0): −53% | Percent Growth (CCRF-CEM; Log10 Concentration −5.0): −29% | Percent Growth (CCRF-CEM; Log10 Concentration −6.0): 59% | Percent Growth (CCRF-CEM; Log10 Concentration −7.0): 93% | Percent Growth (CCRF-CEM; Log10 Concentration −8.0): 97% | GI50 (CCRF-CEM; NCI five dose): 1250 nM | TGI (CCRF-CEM; NCI five dose): 4.69E−6 | Percent Growth (UACC-62; Log10 Concentration −4.0): −86% | Percent Growth (UACC-62; Log10 Concentration −5.0): 35% | Percent Growth (UACC-62; Log10 Concentration −6.0): 86% | Percent Growth (UACC-62; Log10 Concentration −7.0): 99% | Percent Growth (UACC-62; Log10 Concentration −8.0): 100% | GI50 (UACC-62; NCI five dose): 5.11 µM | TGI (UACC-62; NCI five dose): 1.95E−5
